Measurements reported in PMC6133092, “Synthesis of 2-alkylthio-N-(quinazolin-2-yl)benzenesulfonamide derivatives: anticancer activity, QSAR studies, and metabolic stability” (Monatshefte Fur Chemie, 2018).

Experiments:
Type in all cases: cell-based
NCI-H522 = assay: NCI-60 single dose screen, NCI-H522; settings: Homo sapiens, NSCLC, single concentration 10^−5 M, read-out: IGP (inhibition growth percent) NCI-H522
Experimental: (§1) Aside from above, compounds 9–14 and 17–24 were also submitted to National Cancer Institute and evaluated for the cytotoxic effects toward 60 cell lines at a single dose of 10 μM (Table 2). […] As it was summarized in Table 2, leukemia RPMI-8226 and NSCLC A549/ATCC were most sensitive to compounds 18, 22, and 24. These derivatives in 10 μM concentration inhibited the growth of approximately 50% cells belonging to the above mention cell lines.
(§2) Cytotoxicity evaluation of compounds 9–14 and 17–24 was performed at the National Cancer Institute according to NCI-60 DTP human tumor cell line screen procedure.

HCT-116, HeLa, MCF-7 = assay: MTT assays, mean over three tested cell lines; settings: Homo sapiens, mean of HCT-116, HeLa, read-out: mean IC50 against three tested cell lines
Experimental: All of the newly synthesized compounds 9–24 were evaluated for their effects on cell viability in three human cancer cell lines: HCT-116 (colon cancer), HeLa (cervical cancer), and MCF-7 (breast cancer). Cisplatin was used as reference drug. […] Considering the activity of derivatives 9–12, 15, 17, 18, and 21–24, it can be noticed that phenyl group as R^3 bring an increase of cytotoxicity in comparison with methyl in place of R^3. However, this impact seems to be the most important for compounds with the bulky group in R^1 and generally, it is less for a set of derivatives with methyl group substituted in R^1 (9–12).
(§3) Cell viability was determined using the MTT (3-(4,5-dimethylthiazol-2-yl)-2,5-diphenyltetrazolium bromide) assay. Cells were seeded in 96-well plates at a density of 5 × 10^3 cells/well and treated for 72 h with the examined compounds in the concentration range 1–100 μM (1, 10, 25, 50, and 100 μM). Following treatment, MTT (0.5 mg/cm^3) was added to the medium and cells were further incubated for 2 h at 37 °C. Cells were lysed with DMSO and the absorbance of the formazan solution was measured at 550 nm with a plate reader (Victor, 1420 multilabel counter). […] The experiment was performed in triplicate. Values are expressed as the mean ± SD of at least three independent experiments.

A549/ATCC = assay: NCI-60 single dose screen, A549/ATCC; settings: Homo sapiens, A549, NSCLC; single concentration 10^−5 M; read-out: IGP (inhibition growth percent) A549/ATCC
Experimental: as §1, §2

UACC-62 = assay: NCI-60 single dose screen, UACC-62; settings: Homo sapiens, Melanoma, single concentration 10^−5 M, read-out: IGP (inhibition growth percent) UACC-62
Experimental: as §1, §2

HaCaT = assay: Cytotoxic effect against non-carcinogenic cell line HaCaT; settings: for IC50: Homo sapiens, HaCaT, non-carcinogenic cell line, mean ± SD; for activity against HCT-116 fold higher compared with HaCaT: selectivity HCT-116 vs HaCaT; for inhibition of growth of HaCaT cells fold weaker than HeLa cells: selectivity HeLa vs HaCaT
Experimental: For the compounds with the strongest cytotoxicity (12, 18, 22, and 24), an investigation of cytotoxic effect against non-carcinogenic cell line HaCaT was done. […] The activity against HCT-116 was 1.7-, 1.6-, 1.5-, and 1.4-fold higher when compared with HaCaT cell line, for compounds 12, 18, 22, and 24, respectively.
as §3

MCF-7 = assay: NCI-60 single dose screen, MCF-7; settings: Homo sapiens, MCF7; Breast cancer; single concentration 10^−5 M; read-out: IGP (inhibition growth percent) MCF-7
Experimental: as §1, §2

PC-3 = assay: NCI-60 single dose screen, PC-3; settings: Homo sapiens, Prostate cancer, single concentration 10^−5 M, read-out: IGP (inhibition growth percent) PC-3
Experimental: as §1, §2

SMILES | inhibition at 10 µM (NCI-H522) [%] | IC50 (HCT-116, HeLa, MCF-7) [µM] | inhibition at 10 µM (A549/ATCC) [%] | inhibition at 10 µM (UACC-62) [%] | IC50 (HaCaT) [µM] | activity against HCT-116 fold higher compared with HaCaT (HaCaT) [fold] | inhibition of growth of HaCaT cells fold weaker than HeLa cells (HaCaT) [fold] | inhibition at 10 µM (MCF-7) [%] | inhibition at 10 µM (PC-3) [%]
Cc1ccc(NC(=O)c2cc(S(=O)(=O)Nc3nc(-c4ccccc4)c4ccccc4n3)c(SCc3ccccc3)cc2Cl)cc1 [Compound 24, 2-Benzylthio-4-chloro-5-(4-methylphenylcarbamoyl)-N-(4-phenylquinazolin-2-yl)benzenesulfonamide] | 28 | 45.7 | ~50 | 28 | 58 ± 1 | 1.4 | 1.3 | 23 | 49
O=C(Nc1ccc(Cl)cc1)c1cc(S(=O)(=O)Nc2nc(-c3ccccc3)c3ccccc3n2)c(SCc2ccccc2)cc1Cl [Compound 22, 2-Benzylthio-4-chloro-5-(4-chlorophenylcarbamoyl)-N-(4-phenylquinazolin-2-yl)benzenesulfonamide] | 35 | 44.7 | ~50 | 40 | 59 ± 1 | 1.5 | 1.4 | 20 | 44
O=C(Nc1ccccc1)c1cc(S(=O)(=O)Nc2nc(-c3ccccc3)c3ccccc3n2)c(SCc2ccccc2)cc1Cl [Compound 18, 2-Benzylthio-4-chloro-5-phenylcarbamoyl-N-(4-phenylquinazolin-2-yl)benzenesulfonamide] | 25 | 44.7 | ~50 | 39 | 68 ± 2 | 1.6 | 1.5 | 14 | 24
